Laboratory results: paper PMC3838641 (Biochemistry, 2013)

Columns and labels:
[1] = target: T1, orotidine 5'-monophosphate decarboxylase (ScOMPDC) (Saccharomyces cerevisiae, UniProt P03962, R235A); experiment: […] NMR deuterium exchange kinetics with purified enzyme, Michaelis-Menten fit; type: biochemical
T1 sequence (P03962 2-267 R235A): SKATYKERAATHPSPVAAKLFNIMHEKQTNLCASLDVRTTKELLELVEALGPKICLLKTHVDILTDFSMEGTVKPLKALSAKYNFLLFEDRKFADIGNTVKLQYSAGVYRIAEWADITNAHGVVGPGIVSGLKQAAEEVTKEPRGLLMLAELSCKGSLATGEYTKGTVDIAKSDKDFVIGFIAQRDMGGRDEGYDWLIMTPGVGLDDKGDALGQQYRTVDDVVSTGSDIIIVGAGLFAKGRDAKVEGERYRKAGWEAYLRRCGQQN

[2] = target: T1, orotidine 5'-monophosphate decarboxylase (ScOMPDC); experiment: UV decarboxylation kinetics of truncated substrate; type: biochemical
[3] = target: T1, orotidine 5'-monophosphate decarboxylase (ScOMPDC)

O=c1[nH]c(=O)n([C@@H]2O[C@H](COP(=O)(O)O)[C@@H](O)[C@H]2O)cc1F [h-FUMP, 5-fluorouridine 5'-monophosphate]
Kd [1]: 5 mM

O=C(O)c1c(F)c(=O)[nH]c(=O)n1[C@@H]1OC[C@@H](O)[C@H]1O [FEO, 1-(β-D-erythrofuranosyl)-5-fluoroorotic acid]
FEO + HPO3^2- / (kcat/Km)E [2]: 12 M⁻¹ s⁻¹

O=[PH](O)O [HPO3^2−, phosphite dianion]
FEO + HPO3^2- / (kcat/Km)E•HPi/Kd (M^-2 s^-1) [3]: 250 ± 15 M^−2 s^−1
